The values below come from patent publication US20170355959A1, “METHODS FOR MOBILISING POPULATIONS OF STEM CELLS” (Imperial Innovations Limited, priority 2014, published 2017).

Each structure is given as a SMILES string.

The subject of this test is endocannabinoids and N-acyl ethanolamides. Briefly: Lipid mediator quantification in bone marrow by UPLC/ESI-MS/MS. Type of test: in vivo, mice. As for the experimental part:
Plasma and bone marrow flush (pool of 3 mice, n=1) were processed in order for the extraction of endocannabinoids and congeners (Astarita and Piomelli, 2009; Kingsley and Marnett, 2009). Samples were analysed on an electrospray (ESI) tandem quadrupole Xevo TQ-S mass spectrometer (MS/MS; Waters) coupled to an Acquity Ultrahigh Pressure Chromatography (UPLC) system, and the concentration of analytes was calculated (TargetLynx). Further details concerning extraction and analysis can be found in the Supplemental Experimental Procedures.
Bone marrow flushed from the femurs of 3 mice were pooled (6 ml in total) per treatment to give an n=1 sample. This volume was required to achieve sufficient concentrations of endocannabinoids and N-acyl ethanolamides for detection by UPLC/ESI-MS/MS. Extraction of lipids was carried out by addition of chloroform:methanol (2:1, v/v) (Astarita and Piomelli, 2009; Kingsley and Mamett, 2009). Specifically, ice cold chloroform:methanol was added to each bone marrow supernatant (ml per pooled bone marrow sample), followed by the internal standards AEA-d8 (20 ng) and 2AG-d8 (40 ng). The resulting suspensions were kept on ice for 30 min with occasional vortexing and centrifuged at 5000 rpm for 8 min, to separate the organic and aqueous phases. The organic layer (bottom) from each sample was then removed into a clean vial. The supernatant was evaporated under a fine stream of nitrogen. Once dried the extract was reconstituted in 1 ml of chloroform and semi-purified by SPE (Guo et al, 2010). Briefly, the silica cartridge was equilibrated with 5×1 ml cholorform, the extract was applied, the cartridge was washed with 2×1 ml chloroform and the endocannabinoids eluted with 5×1 ml chloroform:methanol (2:1 v/v). The remaining residue, reconstituted in 100 μL ethanol was stored at −20° C., for no more than 1 week, awaiting UPLC/ESI-MS/MS analysis.
All analysis was performed on an electrospray (ESI) tandem quadrupole Xevo TQ-S mass spectrometer (Waters) coupled to an Acquity Ultrahigh Pressure Chromatography (UPLC) system. The system was controlled by MassLynx v4.1 Software. TargetLynx was used to construct calibration lines and calculate the concentration of analytes of interest. Optimised ESI-MS/MS conditions were achieved through the use of Intellistart within MassLynx software. Individual standards (100 pg/μl) were introduced into the spectrometer by direct infusion via the Xevo TQ-S integrated syringe pump (flow rate 10 μl/min) combined with UPLC solvent flow (rate 0.2 mL/min). All analytes were monitored on the positive ionisation mode. Capillary voltage was set at 2000V, source temperature at 150° C., desolvation temperature at 400° C. and the cone voltage at 20 V. […]

Where [1] appears, read: 4 days, in combination with FAAH inhibition, versus FAAH inhibition only.

On to `C[C@H](Cc1ccc(OCC(=O)O)cc1)NC[C@H](O)c1cccc(Cl)c1` [BRL37344], for which, under setting [1], the “bone marrow levels of 2-AG” value is given as “significantly increased”, the “bone marrow levels of DHEA” value is “significantly increased” and the “bone marrow levels of PEA” value is reported as “significantly increased”. In addition, the “bone marrow levels of other N-acyl ethanolamides, including AEA” value (following administration in vivo) is on record as “remained unchanged”.
